Consider 1 molecule from ChEMBL document CHEMBL1128516, “A check on rational drug design: crystal structure of a complex of human immunodeficiency virus type 1 protease with a novel gamma-turn mimetic inhibitor” (J Med Chem, 1995).

The target in the assay is Human immunodeficiency virus type 1 protease (Human immunodeficiency virus 1, UniProt Q72874). Briefly: Competitive inhibitory activity against HIV-1 protease.

`COC(=O)C(NC(=O)C(NC(=O)[C@H](C)N1CCC(C(C)N(C)C(C)C(=O)O)=CC(Cc2ccccc2)C1=O)C(C)C)C(C)C` (stereo partly specified): the Ki (as a rule, the dissociation constant of the complex between target and ligand, obtained from inhibition or displacement) came to 147 µM.
